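In this assay, cells in 96-well plates receive the compound at five concentrations for 48 hours. Endpoints are linearly interpolated between the surrounding concentrations. GI50: concentration for 50% inhibition of growth. TGI: total growth inhibition.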
What was measured:
Experiment in all cases: growth of human tumour cells (NCI), 48 h
UACC-62 melanoma = test system: UACC-62 melanoma
RXF 393 renal = test system: RXF 393 renal
HCT-116 colon = test system: HCT-116 colon
SNB-19 CNS = test system: SNB-19 CNS
SF-539 CNS = test system: SF-539 CNS
NCI/ADR-RES ovarian = test system: NCI/ADR-RES ovarian
HOP-92 NSCLC = test system: HOP-92 NSCLC
OVCAR-4 ovarian = test system: OVCAR-4 ovarian
HL-60(TB) leukemia = test system: HL-60(TB) leukemia
CCRF-CEM leukemia = test system: CCRF-CEM leukemia

N=c1ccn2c(n1)O[C@@H]1[C@@H](O)[C@H](CO)O[C@@H]12
GI50 (UACC-62 melanoma): 4.93 µM
TGI (UACC-62 melanoma): > 100 µM
GI50 (RXF 393 renal): 18.1 µM
TGI (RXF 393 renal): > 100 µM
GI50 (HCT-116 colon): 0.519 µM
TGI (HCT-116 colon): > 100 µM
GI50 (SNB-19 CNS): 1.44 µM
TGI (SNB-19 CNS): > 100 µM
GI50 (SF-539 CNS): 63.9 µM
TGI (SF-539 CNS): > 100 µM
GI50 (NCI/ADR-RES ovarian): 2.08 µM
TGI (NCI/ADR-RES ovarian): > 100 µM
GI50 (HOP-92 NSCLC): 9.94 µM
TGI (HOP-92 NSCLC): > 100 µM
GI50 (OVCAR-4 ovarian): 10.4 µM
TGI (OVCAR-4 ovarian): > 100 µM
GI50 (HL-60(TB) leukemia): 8.41 µM
TGI (HL-60(TB) leukemia): > 100 µM
GI50 (CCRF-CEM leukemia): 0.0773 µM
TGI (CCRF-CEM leukemia): > 100 µM

Nc1c(C(=O)Nc2ccccc2)sc2nc3c(cc12)CCCC3
GI50 (UACC-62 melanoma): 0.493 µM
TGI (UACC-62 melanoma): > 100 µM
GI50 (RXF 393 renal): 0.744 µM
TGI (RXF 393 renal): 8.17 µM
GI50 (HCT-116 colon): 0.49 µM
TGI (HCT-116 colon): > 100 µM
GI50 (SNB-19 CNS): 18.1 µM
TGI (SNB-19 CNS): > 100 µM
GI50 (SF-539 CNS): 0.452 µM
TGI (SF-539 CNS): 3.9 µM
GI50 (NCI/ADR-RES ovarian): 0.683 µM
TGI (NCI/ADR-RES ovarian): > 100 µM
GI50 (HOP-92 NSCLC): 0.509 µM
TGI (HOP-92 NSCLC): > 100 µM
GI50 (OVCAR-4 ovarian): 5.18 µM
TGI (OVCAR-4 ovarian): > 100 µM
GI50 (HL-60(TB) leukemia): 0.299 µM
TGI (HL-60(TB) leukemia): 20.8 µM
GI50 (CCRF-CEM leukemia): 0.374 µM
TGI (CCRF-CEM leukemia): > 46.5 µM

CCCN1CCN(c2ccc3nc(-c4ccc5nc(-c6ccc(OCC)c(OCC)c6)[nH]c5c4)[nH]c3c2)CC1
GI50 (UACC-62 melanoma): 0.348 µM
TGI (UACC-62 melanoma): 1.87 µM
GI50 (RXF 393 renal): 0.27 µM
TGI (RXF 393 renal): 0.83 µM
GI50 (HCT-116 colon): 0.218 µM
TGI (HCT-116 colon): 1.19 µM
GI50 (SNB-19 CNS): 0.616 µM
TGI (SNB-19 CNS): 1.98 µM
GI50 (SF-539 CNS): 0.724 µM
TGI (SF-539 CNS): 2.05 µM
GI50 (NCI/ADR-RES ovarian): > 100 µM
TGI (NCI/ADR-RES ovarian): > 100 µM
GI50 (HOP-92 NSCLC): 1 µM
TGI (HOP-92 NSCLC): 5.5 µM
GI50 (OVCAR-4 ovarian): 0.449 µM
TGI (OVCAR-4 ovarian): 1.84 µM
GI50 (HL-60(TB) leukemia): 0.339 µM
TGI (HL-60(TB) leukemia): 2.74 µM
GI50 (CCRF-CEM leukemia): 0.394 µM
TGI (CCRF-CEM leukemia): 3.07 µM

COc1ccc(-c2coc3cc(OC)cc(O)c3c2=O)cc1
TGI (UACC-62 melanoma): > 100 µM
TGI (RXF 393 renal): 83.1 µM
TGI (HCT-116 colon): > 100 µM
TGI (SNB-19 CNS): > 100 µM
TGI (SF-539 CNS): > 100 µM
TGI (NCI/ADR-RES ovarian): > 100 µM
TGI (HOP-92 NSCLC): 94.6 µM
TGI (OVCAR-4 ovarian): > 100 µM
TGI (HL-60(TB) leukemia): > 100 µM
TGI (CCRF-CEM leukemia): > 100 µM

CCc1ccc(Nc2cc(C)nc3nc(C)nn23)cc1
GI50 (UACC-62 melanoma): 37.7 µM
TGI (UACC-62 melanoma): > 100 µM
GI50 (RXF 393 renal): 19.3 µM
TGI (RXF 393 renal): > 100 µM
GI50 (HCT-116 colon): 80.1 µM
TGI (HCT-116 colon): > 100 µM
GI50 (SNB-19 CNS): 53.4 µM
TGI (SNB-19 CNS): > 100 µM
GI50 (SF-539 CNS): > 100 µM
TGI (SF-539 CNS): > 100 µM
GI50 (NCI/ADR-RES ovarian): 49.4 µM
TGI (NCI/ADR-RES ovarian): > 100 µM
GI50 (HOP-92 NSCLC): 28.9 µM
TGI (HOP-92 NSCLC): > 100 µM
GI50 (OVCAR-4 ovarian): 27.7 µM
TGI (OVCAR-4 ovarian): > 100 µM
GI50 (HL-60(TB) leukemia): > 100 µM
TGI (HL-60(TB) leukemia): > 100 µM
GI50 (CCRF-CEM leukemia): 48.1 µM
TGI (CCRF-CEM leukemia): > 100 µM

COc1cc2c3c(c4c5ccccc5[nH]c4c2c(OC)c1OC)C(=O)N(CCN1CCCCC1)C3=O
GI50 (UACC-62 melanoma): 3.88 µM
TGI (UACC-62 melanoma): 9.12 µM
GI50 (RXF 393 renal): 0.502 µM
TGI (RXF 393 renal): 1.89 µM
GI50 (HCT-116 colon): 0.351 µM
TGI (HCT-116 colon): 1.46 µM
GI50 (SNB-19 CNS): 1.05 µM
TGI (SNB-19 CNS): 2.42 µM
GI50 (SF-539 CNS): 1.38 µM
TGI (SF-539 CNS): 2.72 µM
GI50 (NCI/ADR-RES ovarian): 0.892 µM
TGI (NCI/ADR-RES ovarian): 3.19 µM
GI50 (HOP-92 NSCLC): 1.3 µM
TGI (HOP-92 NSCLC): 5.21 µM
GI50 (OVCAR-4 ovarian): 1.26 µM
TGI (OVCAR-4 ovarian): 3.14 µM
GI50 (HL-60(TB) leukemia): 8.15 µM
TGI (HL-60(TB) leukemia): > 41 µM
GI50 (CCRF-CEM leukemia): 0.855 µM
TGI (CCRF-CEM leukemia): > 100 µM

Cc1ccc(NC(=O)c2nc(S(C)=O)oc2-c2ccc(F)cc2)cc1Nc1nccc(-c2cccnc2)n1 (centres undefined)
GI50 (UACC-62 melanoma): 1.8 µM
TGI (UACC-62 melanoma): 3.38 µM
GI50 (RXF 393 renal): 1.86 µM
TGI (RXF 393 renal): 3.46 µM
GI50 (HCT-116 colon): 1.88 µM
TGI (HCT-116 colon): 3.57 µM
GI50 (SNB-19 CNS): 2.15 µM
TGI (SNB-19 CNS): 3.91 µM
GI50 (SF-539 CNS): 1.77 µM
TGI (SF-539 CNS): 3.71 µM
GI50 (NCI/ADR-RES ovarian): 3.07 µM
TGI (NCI/ADR-RES ovarian): 11.9 µM
GI50 (HOP-92 NSCLC): 2.13 µM
TGI (HOP-92 NSCLC): 4.69 µM
GI50 (OVCAR-4 ovarian): 3.16 µM
TGI (OVCAR-4 ovarian): 9 µM
GI50 (HL-60(TB) leukemia): 3.06 µM
TGI (HL-60(TB) leukemia): 10.9 µM
GI50 (CCRF-CEM leukemia): 1.58 µM
TGI (CCRF-CEM leukemia): 6.83 µM

CC(=O)c1ccc(NCN2C(=O)c3ccccc3C2=O)cc1
TGI (UACC-62 melanoma): > 100 µM
TGI (RXF 393 renal): > 100 µM
TGI (HCT-116 colon): > 100 µM
TGI (SNB-19 CNS): > 100 µM
TGI (SF-539 CNS): > 100 µM
TGI (NCI/ADR-RES ovarian): > 100 µM
TGI (HOP-92 NSCLC): > 100 µM
TGI (OVCAR-4 ovarian): > 100 µM
TGI (HL-60(TB) leukemia): > 100 µM
TGI (CCRF-CEM leukemia): > 100 µM

O=C(/C=C/c1cccnc1)c1ccccc1O
GI50 (UACC-62 melanoma): 16.2 µM
TGI (UACC-62 melanoma): 35.3 µM
GI50 (RXF 393 renal): 13.8 µM
TGI (RXF 393 renal): 27.3 µM
GI50 (HCT-116 colon): 16.8 µM
TGI (HCT-116 colon): 34.9 µM
GI50 (SNB-19 CNS): 20.3 µM
TGI (SNB-19 CNS): 62.5 µM
GI50 (SF-539 CNS): 14.4 µM
TGI (SF-539 CNS): 34.7 µM
GI50 (NCI/ADR-RES ovarian): 24.6 µM
TGI (NCI/ADR-RES ovarian): > 100 µM
GI50 (HOP-92 NSCLC): 10.4 µM
TGI (HOP-92 NSCLC): 32.5 µM
GI50 (OVCAR-4 ovarian): 29.5 µM
TGI (OVCAR-4 ovarian): > 100 µM
GI50 (HL-60(TB) leukemia): 18.1 µM
TGI (HL-60(TB) leukemia): 43 µM
GI50 (CCRF-CEM leukemia): 22.7 µM
TGI (CCRF-CEM leukemia): > 100 µM

CN1CCCN(C(c2ccccc2)c2ccc(Br)cc2)CC1 (centres undefined)
GI50 (UACC-62 melanoma): 2.03 µM
TGI (UACC-62 melanoma): 4.35 µM
GI50 (RXF 393 renal): 2.65 µM
TGI (RXF 393 renal): 8.67 µM
GI50 (HCT-116 colon): 1.84 µM
TGI (HCT-116 colon): 4.23 µM
GI50 (SNB-19 CNS): 14.8 µM
TGI (SNB-19 CNS): 28 µM
GI50 (SF-539 CNS): 3.09 µM
TGI (SF-539 CNS): 11.1 µM
GI50 (NCI/ADR-RES ovarian): 3.09 µM
GI50 (HOP-92 NSCLC): 0.635 µM
TGI (HOP-92 NSCLC): 7.73 µM
GI50 (OVCAR-4 ovarian): 7.63 µM
TGI (OVCAR-4 ovarian): 20.5 µM
GI50 (HL-60(TB) leukemia): 3.52 µM
TGI (HL-60(TB) leukemia): 34.1 µM
GI50 (CCRF-CEM leukemia): 4.14 µM
TGI (CCRF-CEM leukemia): 18.9 µM

Cn1c(=S)sc2nc3ccccc3n2c1=S
TGI (UACC-62 melanoma): 32.8 µM
TGI (RXF 393 renal): 27.4 µM
TGI (HCT-116 colon): 17.9 µM
TGI (SNB-19 CNS): 33.6 µM
TGI (SF-539 CNS): 27.1 µM
TGI (NCI/ADR-RES ovarian): 44.8 µM
TGI (HOP-92 NSCLC): 25.8 µM
TGI (OVCAR-4 ovarian): 42.3 µM
TGI (HL-60(TB) leukemia): 5.07 µM
TGI (CCRF-CEM leukemia): 43.7 µM

CC[C@]12CCCN3CC[C@]4(C(=C(C(=O)OC)C1)Nc1ccccc14)[C@@H]32
GI50 (UACC-62 melanoma): 11.4 µM
TGI (UACC-62 melanoma): 31 µM
GI50 (RXF 393 renal): 15.5 µM
TGI (RXF 393 renal): 30.4 µM
GI50 (HCT-116 colon): 14.6 µM
TGI (HCT-116 colon): 33 µM
GI50 (SNB-19 CNS): 22.9 µM
TGI (SNB-19 CNS): 66.2 µM
GI50 (SF-539 CNS): 18.2 µM
TGI (SF-539 CNS): 37.9 µM
GI50 (NCI/ADR-RES ovarian): 14.3 µM
TGI (NCI/ADR-RES ovarian): 33.4 µM
GI50 (HOP-92 NSCLC): 7.09 µM
TGI (HOP-92 NSCLC): 24.6 µM
GI50 (OVCAR-4 ovarian): 15.4 µM
TGI (OVCAR-4 ovarian): 54.8 µM
GI50 (HL-60(TB) leukemia): 21.9 µM
TGI (HL-60(TB) leukemia): 52 µM
GI50 (CCRF-CEM leukemia): 21.4 µM
TGI (CCRF-CEM leukemia): 70 µM
